The test system of assay [1] is HCT116 colorectal cancer cells.
The next assay has as its system HCT116/SCID. Nature of the assay: Mouse subcutaneous engraftment model (HCT116/SCID). The format is in vivo. The text has this:
Based on analysis of p53/MDM2 and PMI-N8A/MDM2 crystal structures we placed various combinations of (L)- and (D)Cys residues in specific positions of PMI sequence considering the importance of particular amino acids for peptide bioactivity (see, e.g., Tables 1 and 2. Particular combinations were in turn tAB-ed using selected bis-halogeno-aryl compounds (see, e.g., FIG. 1) that fit into spatial arrangements/dimensions available, based on computer aided molecular modeling. Since ^DPMI-a presumably lack cell permeating properties, in addition we engineered several analogues as a cell permeating compounds containing multiple Arg residues simultaneously employing combination of D- and unusual amino acids to further enhance stability and binding properties of the peptide. Analogues were subsequently tested in vitro using HCT116 colorectal cancer cells and PrestoBlue™ assay (Invitrogen). […] Selected analogues were also tested in vivo using mouse subcutaneous engraftment model (HCT116/SCID).

Starred links: 1 amine or outer side, 2 acyl side, 3 side chain; linkers in the order of their positions; H or OH if unused. Positions of bridges follow the written chain, without caps; N, C: chain ends. Non-standard residues stand in square brackets, D forms with d. Residues, ends and D or L forms follow the SMILES beside them. ξ: configuration not given here. *: point of attachment. Phe(F5) = N[C@@H](Cc1c(F)c(F)c(F)c(F)c1F)C(=O)O; Chlorambucil = O=C(CCCc1ccc(N(CCCl)CCCl)cc1)*; 1Nal = N[C@@H](Cc1cccc2ccccc12)C(=O)O; oXylylene = c1ccc(C[*:2])c(C[*:1])c1; Cha = N[C@@H](CC1CCCCC1)C(=O)O; ξDisc = O=C(O)C1NCc2ccccc21; Ahx = NCCCCCC(=O)O

By EC50 is commonly meant the concentration needed to bring the measured effect to its halfway point. A low value points to an effect from little substance.

The compound `N=C(N)NCCC[C@@H](N)C(=O)N[C@@H](CCCNC(=N)N)C(=O)N[C@@H](Cc1c(F)c(F)c(F)c(F)c1F)C(=O)N[C@@H](CCCNC(=N)N)C(=O)N[C@@H]1CSCc2ccccc2CSC[C@@H](C(=O)N[C@H](CCCNC(=N)N)C(=O)N[C@@H](CC2CCCCC2)C(=O)N[C@@H](CCCNC(=N)N)C(=O)N2Cc3ccccc3C2C(N)=O)NC(=O)[C@H](Cc2cccc3ccccc23)NC(=O)[C@H](Cc2ccc(O)cc2)NC1=O` (stereo partly drawn) [ArB14Co, Arg-Arg-PhF-Arg-Cys-Tyr-Na1-Cys-Arg-Cha-Arg-DISC] (H-[dR]R[Phe(F5)]R[dC]Y[1Nal]C[dR][Cha]R[ξDisc]-NH2; linker 5-8 via oXylylene) yielded an EC50 in assay [1] of 11.2 ± 1.2 µM. Moreover, the tumor growth delay in the assay with HCT116/SCID is about 14.6 days.

In the case of `CC(C)C[C@H](NC(=O)[C@@H](C)NC(=O)[C@@H]1CSCc2ccccc2CSC[C@@H](NC(=O)[C@H](C)NC(=O)[C@H](Cc2ccccc2)NC(=O)[C@H](CO)NC(=O)[C@@H](N)[C@@H](C)O)C(=O)N[C@@H](Cc2ccc(O)cc2)C(=O)N[C@@H](Cc2c[nH]c3ccccc23)C(=O)N1)C(=O)N[C@@H](CO)C(=O)N1CCC[C@H]1C(N)=O` [ArB14o], in assay [1], a half-maximal response (EC50) required 249 µM.

In assay [1], `N=C(N)NCCC[C@H](NC(=O)[C@H](Cc1c(F)c(F)c(F)c(F)c1F)NC(=O)[C@H](CCCNC(=N)N)NC(=O)[C@@H](CCCNC(=N)N)NC(=O)CCCCCNC(=O)CCCc1ccc(N(CCCl)CCCl)cc1)C(=O)N[C@@H]1CSCc2ccccc2CSC[C@@H](C(=O)N[C@H](CCCNC(=N)N)C(=O)N[C@@H](CC2CCCCC2)C(=O)N[C@@H](CCCNC(=N)N)C(=O)N2Cc3ccccc3C2C(N)=O)NC(=O)[C@H](Cc2cccc3ccccc23)NC(=O)[C@H](Cc2ccc(O)cc2)NC1=O` (stereo partly drawn) [ArB14Co-CLB, CLB-Ahx-Arg-Arg-PhF-Arg-Cys-Tyr-Na1-Cys-Arg-Cha-Arg-DISC] ({Chlorambucil-Ahx}-[dR]R[Phe(F5)]R[dC]Y[1Nal]C[dR][Cha]R[ξDisc]-NH2; linker 5-8 via oXylylene) came in with an EC50 of 7.5 ± 1.1 µM.

(Values after patent publication US9556229B2, “Modification of peptides using a bis(thioether)arylbridge approach” (priority 2012, dated 2017).)
